Our source for the IC50 values is US20250136576A1, “Heterocyclic Compounds and Uses Thereof” (ACEA Therapeutics, Inc., priority 2021, published 2025).

As usually defined, the IC50 is the point on the concentration scale where inhibition reaches its midpoint.

This test relates to KM12-luc cells. The experiment in a line: Cell proliferation and growth inhibition assay (CCK-8) in KM12-luc. Type of test: cell-based. The note with it: KM12-luc cells, treated with test compounds for 72 hrs, CCK-8 viability, read-out: NTRK IC50 in KM12-luc. The method, then:
MV-4-11 and H1975 cells were obtained from the American Type Culture Collection and KM12-luc cells were obtained from JCRB Cell Bank. All cell lines were maintained at 37° C. with 5% C02, in media supplemented with 10% fetal bovine serum and penicillin (100 units/mL) and streptomycin (100 μg/mL). MV-4-11 cells were maintained in Iscove's Modified Dubecco's Medium, H1975 cells were cultured with RPMI 1640 media, and KM12-luc cells were maintained in Dulbecco's Modification of Eagle's Medium. CCK-8 reagent was obtained from Yeasen. Cell proliferation was assessed by CCK-8 assay (Yeasen) per the manufacturer's instructions. […] Cell viability was assayed by incubating the cells with CCK-8 reagent for 1-4 hrs. Absorbance was measured at OD450 using the Beckman DTX880. The data was calculated using GraphPad Prism version 6.01. The IC50 values were fitted using a non-linear regression model with a sigmoidal dose response.

The structures appear in SMILES notation. Read-outs that look alike come from different tables or passages of the source. Some results are limits rather than exact numbers.

As for `CC(=O)Nc1cc(Nc2nc3c(c(-c4cn(C)c5ccccc45)n2)COCC3)ccc1N(C)CCN(C)C` [Compound 257a, N-(2-((2-(dimethylamino)ethyl)(methyl)amino)-5-((4-(1-methyl-1H-indol-3-yl)-7,8-dihydro-5H-pyrano[4,3-d]pyrimidin-2-yl)amino)phenyl)acetamide], the IC50 (KM12-Luc, 72 h) is greater than 10000 nM. In the case of `CC(=O)Nc1cc(Nc2nc3c(c(-c4cn(C)c5ccccc45)n2)COCC3)cc(F)c1N(C)CCN(C)C` [Compound 257b, N-(2-((2-(dimethylamino)ethyl)(methyl)amino)-3-fluoro-5-((4-(1-methyl-1H-indol-3-yl)-7,8-dihydro-5H-pyrano[4,3-d]pyrimidin-2-yl)amino)phenyl)acetamide], the concentration for half-maximal inhibition (IC50) (KM12-Luc, 72 h) was greater than 10000 nM. Take `CCN(CCN(C)C)c1ccc(Nc2nc3c(c(-c4cn(C)c5ccccc45)n2)COCC3)cc1NC(C)=O` [Compound 257c, N-(2-((2-(dimethylamino)ethyl)(ethyl)amino)-5-((4-(1-methyl-1H-indol-3-yl)-7,8-dihydro-5H-pyrano[4,3-d]pyrimidin-2-yl)amino)phenyl)acetamide]: the IC50 (KM12-Luc, 72 h) was greater than 10000 nM. Still for that read-out and setting: the result for `CCN(CCN(C)C)c1c(F)cc(Nc2nc3c(c(-c4cn(C)c5ccccc45)n2)COCC3)cc1NC(C)=O` [Compound 257d, N-(2-((2-(dimethylamino)ethyl)(ethyl)amino)-3-fluoro-5-((4-(1-methyl-1H-indol-3-yl)-7,8-dihydro-5H-pyrano[4,3-d]pyrimidin-2-yl)amino)phenyl)acetamide] reads greater than 10000 nM. For `CC(=O)Nc1cc(Nc2nc3c(c(-c4cn(C)c5ccccc45)n2)CCO3)ccc1N(C)CCN(C)C` [Compound 258a, N-(2-((2-(dimethylamino)ethyl)(methyl)amino)-5-((4-(1-methyl-1H-indol-3-yl)-5,6-dihydrofuro[2,3-d]pyrimidin-2-yl)amino)phenyl)acetamide], the half-maximal inhibitory concentration (IC50) (KM12-Luc, 72 h) was greater than 1000 nM. Take `CC(=O)Nc1cc(Nc2nc3c(c(-c4cn(C)c5ccccc45)n2)CCO3)cc(F)c1N(C)CCN(C)C` [Compound 258b, N-(2-((2-(dimethylamino)ethyl)(methyl)amino)-3-fluoro-5-((4-(1-methyl-1H-indol-3-yl)-5,6-dihydrofuro[2,3-d]pyrimidin-2-yl)amino)phenyl)acetamide]: the IC50 (KM12-Luc, 72 h) was greater than 1000 nM. Still for that read-out and setting: the figure for `CCN(CCN(C)C)c1ccc(Nc2nc3c(c(-c4cn(C)c5ccccc45)n2)CCO3)cc1NC(C)=O` [Compound 258c, N-(2-((2-(dimethylamino)ethyl)(ethyl)amino)-5-((4-(1-methyl-1H-indol-3-yl)-5,6-dihydrofuro[2,3-d]pyrimidin-2-yl)amino)phenyl)acetamide] is greater than 1000 nM; for `CCN(CCN(C)C)c1c(F)cc(Nc2nc3c(c(-c4cn(C)c5ccccc45)n2)CCO3)cc1NC(C)=O` [Compound 258d, N-(2-((2-(dimethylamino)ethyl)(ethyl)amino)-3-fluoro-5-((4-(1-methyl-1H-indol-3-yl)-5,6-dihydrofuro[2,3-d]pyrimidin-2-yl)amino)phenyl)acetamide] it is greater than 1000 nM. Take `CC(=O)Nc1cc(Nc2ncc(F)c(-c3c[nH]c4ccccc34)n2)ccc1N(C)CCN(C)C` [Compound 259a, N-(2-((2-(dimethylamino)ethyl)(methyl)amino)-5-((5-fluoro-4-(1H-indol-3-yl)pyrimidin-2-yl)amino)phenyl)acetamide]: the IC50 (KM12-Luc, 72 h) was found to be 65.7 nM. The same measure, in the same setting: the result for `CC(=O)Nc1cc(Nc2ncc(F)c(-c3cn(-c4ncc(F)c(-c5c[nH]c6ccccc56)n4)c4ccccc34)n2)ccc1N(C)CCN(C)C` [Compound 259b, N-(2-((2-(dimethylamino)ethyl)(methyl)amino)-5-((5-fluoro-4-(1-(5-fluoro-4-(1H-indol-3-yl)pyrimidin-2-yl)-1H-indol-3-yl)pyrimidin-2-yl)amino)phenyl)acetamide] reads 541 nM; that for `CNc1cc(Nc2ncc(F)c(-c3c[nH]c4ccccc34)n2)ccc1N(C)CCN(C)C` [Compound 260, N^1-(2-(dimethylamino)ethyl)-N^4-(5-fluoro-4-(1H-indol-3-yl)pyrimidin-2-yl)-N^1,N^2-dimethylbenzene-1,2,4-triamine], 145 nM. The same measure, in the same setting: the result for `CC(=O)Nc1cc(Nc2ncc(F)c(-c3cn(C)c4ccccc34)n2)ccc1N(C)CCN(C)C` [Compound 261, N-(2-((2-(dimethylamino)ethyl)(methyl)amino)-5-((5-fluoro-4-(1-methyl-1H-indol-3-yl)pyrimidin-2-yl)amino)phenyl)acetamide] reads 509 nM; that for `CN(C)CCN(C)c1ccc(Nc2ncc(F)c(-c3cn(C)c4ccccc34)n2)cc1N` [Compound 262, N^1-(2-(dimethylamino)ethyl)-N^4-(5-fluoro-4-(1-methyl-1H-indol-3-yl)pyrimidin-2-yl)-N-methylbenzene-1,2,4-triamine], 966 nM; that for `CNc1cc(Nc2ncc(F)c(-c3cn(C)c4ccccc34)n2)ccc1N(C)CCN(C)C` [Compound 263, N^1-(2-(dimethylamino)ethyl)-N^4-(5-fluoro-4-(1-methyl-1H-indol-3-yl)pyrimidin-2-yl)-N^1,N^2-dimethylbenzene-1,2,4-triamine], 704 nM. On the same count and under the same terms, the result for `CC(=O)Nc1cc(Nc2ncc(F)c(-c3cn(C)c4cccc(F)c34)n2)ccc1N(C)CCN(C)C` [Compound 264, N-(2-((2-(dimethylamino)ethyl)(methyl)amino)-5-((5-fluoro-4-(4-fluoro-1-methyl-1H-indol-3-yl)pyrimidin-2-yl)amino)phenyl)acetamide] reads 1040 nM; that for `CC(=O)Nc1cc(Nc2ncc(F)c(-c3cn(C)c4ccc(F)cc34)n2)ccc1N(C)CCN(C)C` [Compound 265, N-(2-((2-(dimethylamino)ethyl)(methyl)amino)-5-((5-fluoro-4-(5-fluoro-1-methyl-1H-indol-3-yl)pyrimidin-2-yl)amino)phenyl)acetamide], 414 nM. In the case of `CC(=O)Nc1cc(Nc2ncc(F)c(-c3c[nH]c4cc(F)ccc34)n2)ccc1N(C)CCN(C)C` [Compound 266, N-(2-((2-(dimethylamino)ethyl)(methyl)amino)-5-((5-fluoro-4-(6-fluoro-1H-indol-3-yl)pyrimidin-2-yl)amino)phenyl)acetamide], the 50% inhibitory concentration (IC50) (KM12-Luc, 72 h) was 764 nM. Same read-out and setting: the result for `CC(=O)Nc1cc(Nc2ncc(F)c(-c3cn(C)c4cc(F)ccc34)n2)ccc1N(C)CCN(C)C` [Compound 267, N-(2-((2-(dimethylamino)ethyl)(methyl)amino)-5-((5-fluoro-4-(6-fluoro-1-methyl-1H-indol-3-yl)pyrimidin-2-yl)amino)phenyl)acetamide] reads 303 nM. Still for that read-out and setting: the result for `CC(=O)Nc1cc(Nc2ncc(F)c(-c3cn(C)c4cc(F)c(F)cc34)n2)ccc1N(C)CCN(C)C` [Compound 268, N-(5-((4-(5,6-difluoro-1-methyl-1H-indol-3-yl)-5-fluoropyrimidin-2-yl)amino)-2-((2-(dimethylamino)ethyl)(methyl)amino)phenyl)acetamide] reads 784 nM. In the case of `CC(=O)Nc1cc(Nc2ncc(F)c(-c3c[nH]c4ccc(C)cc34)n2)ccc1N(C)CCN(C)C` [Compound 269, N—N-(2-((2-(dimethylamino)ethyl)(methyl)amino)-5-((5-fluoro-4-(5-methyl-1H-indol-3-yl)pyrimidin-2-yl)amino)phenyl)acetamide], the 50% inhibitory concentration (IC50) stood at 112 nM. As for `CC(=O)Nc1cc(Nc2ncc(F)c(-c3cn(C)c4ccc(C)cc34)n2)ccc1N(C)CCN(C)C` [Compound 270, N-(5-((4-(1,5-dimethyl-1H-indol-3-yl)-5-fluoropyrimidin-2-yl)amino)-2-((2-(dimethylamino)ethyl)(methyl)amino)phenyl)acetamide], the concentration for half-maximal inhibition (IC50) (KM12-Luc, 72 h) turned out to be 1600 nM.

Turning to `COc1cccc2c1c(-c1nc(Nc3ccc(N(C)CCN(C)C)c(NC(C)=O)c3)ncc1F)cn2C` [Compound 271, N-(2-((2-(dimethylamino)ethyl)(methyl)amino)-5-((5-fluoro-4-(4-methoxy-1-methyl-1H-indol-3-yl)pyrimidin-2-yl)amino)phenyl)acetamide], the IC50 (KM12-Luc, 72 h) was found to be 1480 nM. The same measure, in the same setting: the figure for `COc1cnc(Nc2ccc(N(C)CCN(C)C)c(NC(C)=O)c2)nc1-c1c[nH]c2ccccc12` [Compound 272a, N-(5-(4-(1H-indol-3-yl)-5-methoxypyrimidin-2-ylamino)-2-((2-(dimethylamino)ethyl)(methyl)amino)phenyl)acetamide] is 41 nM. Same read-out and setting: the figure for `COc1cnc(-n2cc(-c3nc(Nc4ccc(N(C)CCN(C)C)c(NC(C)=O)c4)ncc3OC)c3ccccc32)nc1-c1c[nH]c2ccccc12` [Compound 272b, N-(5-(4-(1-(4-(1H-indol-3-yl)-5-methoxypyrimidin-2-yl)-1H-indol-3-yl)-5-methoxypyrimidin-2-ylamino)-2-((2-(dimethylamino)ethyl)(methyl)amino)phenyl)acetamide] is 2060 nM; for `CNc1cc(Nc2ncc(OC)c(-c3c[nH]c4ccccc34)n2)ccc1N(C)CCN(C)C` [Compound 273a, N^4-(4-(1H-indol-3-yl)-5-methoxypyrimidin-2-yl)-N1-(2-(dimethylamino)ethyl)-N^1,N^2-dimethylbenzene-1,2,4-triamine] it is 127 nM; for `CNc1cc(Nc2ncc(OC)c(-c3cn(-c4ncc(OC)c(-c5c[nH]c6ccccc56)n4)c4ccccc34)n2)ccc1N(C)CCN(C)C` [Compound 273b, N^4-(4-(1-(4-(1H-indol-3-yl)-5-methoxypyrimidin-2-yl)-1H-indol-3-yl)-5-methoxypyrimidin-2-yl)-N^1-(2-(dimethylamino)ethyl)-N^1,N^2-dimethylbenzene-1,2,4-triamine] it is 3320 nM.
